Data: US10189843B2, “Fused pyrazole derivative having autotaxin inhibitory activity” (The University of Tokyo, priority 2014, dated 2019)

Target: T1, Human autotaxin enzyme (Homo sapiens, UniProt Q13822)
T1 construct: purchased R&D System
Experiment: Evaluation of autotaxin inhibitor, Method C (18:0 Lyso PC substrate, choline assay, Resorufin fluorescence)
Format: biochemical
Conditions: Method C (Test Example 3), read-out: Inhibitory activity (enzyme inhibitory activity, IC50)
In short: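 Recombinant human autotaxin with compound and 200 μM 18:0 Lyso PC (stock) in Tris-HCl pH 7.5, NaCl, MgCl2, Triton X-100, 2 h RT. Released choline detected via choline oxidase/peroxidase/Amplex-type reagent, 20 min, resorufin fluorescence 531/598 nm; % inhibition vs no-compound and no-enzyme controls, concentration-response curve.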

| SMILES | IC50 [nM] |
| --- | --- |
| N#Cc1ccc(CN2CC(COCC(F)(F)C(F)F)n3nc(-c4ccc(Cl)cc4)cc3C2=O)cc1 (stereo not drawn) [Compound I-0190] | 10 to 100 |
| CCCCC1CN(Cc2ccc(C#N)cc2)C(=O)c2cc(-c3ccc(C(F)(F)F)cc3)nn21 (stereo not drawn) [Compound I-0191] | 100 to 1000 |
| CCCCC1CN(Cc2ccc(C#N)cc2)C(=O)c2cc(-c3ccc(OC(F)(F)F)cc3CC#N)nn21 (stereo not drawn) [Compound I-0192] | 100 to 1000 |
| CC(C)OCC1CN(Cc2ccc(C#N)cc2)C(=O)c2cc(-c3ccc(Cl)cc3)nn21 (stereo not drawn) [Compound I-0193] | 100 to 1000 |
| CCCCC1CN(Cc2ccc(C#N)cc2)C(=O)c2cc(-c3ccc(OC(F)(F)F)cc3)nn21 (stereo not drawn) [Compound I-0194] | 100 to 1000 |
| N#Cc1ccc(CN2CC(COC(F)(F)C(F)F)n3nc(-c4ccc(Cl)cc4)cc3C2=O)cc1 (stereo not drawn) [Compound I-0195] | 100 to 1000 |
| O=C1NCC(COCC(F)(F)C(F)F)n2nc(-c3ccc(Cl)cc3)cc21 (stereo not drawn) [Compound I-0196] | 100 to 1000 |
| CCCCC1CNC(=O)c2cc(-c3ccc(Cl)cc3)nn21 (stereo not drawn) [Compound I-0197] | ≥ 1000 |
| CCOCC1CNC(=O)c2cc(-c3ccc(Cl)cc3)nn21 (stereo not drawn) [Compound I-0198] | ≥ 1000 |
| CC(C)OCC1CNC(=O)c2cc(-c3ccc(Cl)cc3)nn21 (stereo not drawn) [Compound I-0199] | ≥ 1000 |
| CCCCCC1CN(c2ccncc2)C(=O)c2cc(-c3ccc(Cl)cc3)nn21 (stereo not drawn) [Compound I-0200] | ≥ 1000 |
| CCCCC1CN(Cc2ccc(C#N)cc2)C(=O)c2cc(-c3ccc(C#N)cc3)nn21 (stereo not drawn) [Compound I-0201] | 10 to 100 |
| CCCCCC1CN(c2cccc(CC(=O)O)c2)C(=O)c2cc(-c3ccc(Cl)cc3)nn21 (stereo not drawn) [Compound I-0202] | ≥ 1000 |
| CCCCCC1CN(c2cccc(OCC(=O)O)c2)C(=O)c2cc(-c3ccc(Cl)cc3)nn21 (stereo not drawn) [Compound I-0203] | ≥ 1000 |
| CCCCC1CN(Cc2ccc(C#N)cc2)C(=O)c2cc(-c3ccc(Cl)cc3C=O)nn21 (stereo not drawn) [Compound I-0204] | 10 to 100 |
| CCCCC1CN(Cc2ccc(C#N)cc2)C(=O)c2cc(-c3ccc(OC)cc3)nn21 (stereo not drawn) [Compound I-0205] | 100 to 1000 |
| CCCCC1CN(Cc2ccc(C#N)cc2)C(=O)c2cc(-c3ccc(OC)c(CO)c3)nn21 (stereo not drawn) [Compound I-0206] | ≥ 1000 |

| SMILES | IC50 [nM] |
| --- | --- |
| CCCCC1CN(Cc2ccc(C#N)cc2)C(=O)c2cc(-c3ccc(Cl)cc3CO)nn21 (stereo not drawn) [Compound I-0207] | 10 to 100 |
| CCCCC1CN(CC(=O)NCc2cccc(O)c2)C(=O)c2cc(-c3ccc(Cl)cc3)nn21 (stereo not drawn) [Compound I-0226] | 100 to 1000 |
| CCCCC1CN(CC(=O)N(C)CC(O)c2ccccc2)C(=O)c2cc(-c3ccc(Cl)cc3)nn21 (stereo not drawn) [Compound I-0228] | 100 to 1000 |
| CCCCC1CN(CC(=O)NCc2cc(=O)[nH]o2)C(=O)c2cc(-c3ccc(Cl)cc3)nn21 (stereo not drawn) [Compound I-0233] | 10 to 100 |
| CCCCC1CN(CC(=O)NCCc2cn[nH]c2)C(=O)c2cc(-c3ccc(Cl)cc3)nn21 (stereo not drawn) [Compound I-0234] | 100 to 1000 |
| CCCCC1CN(CC(=O)NCc2ccnc(O)c2)C(=O)c2cc(-c3ccc(Cl)cc3)nn21 (stereo not drawn) [Compound I-0236] | ≥ 1000 |
| CCCCC1CN(CC(=O)N2[C@@H]3CC[C@H]2C[C@@H](O)C3)C(=O)c2cc(-c3ccc(Cl)cc3)nn21 (stereo partly drawn) [Compound I-0238] | 100 to 1000 |
| CCCOCC1CN(CC(=O)OC(C)(C)C)C(=O)c2cc(-c3ccc(Cl)cc3)nn21 (stereo not drawn) [Compound I-0250] | 10 to 100 |
| CCCOCC1CN(CC(=O)NC2(CC#N)CC2)C(=O)c2cc(-c3ccc(Cl)cc3)nn21 (stereo not drawn) [Compound I-0251] | 100 to 1000 |
| CCCOCC1CN(CC(=O)NCC(C)(C)O)C(=O)c2cc(-c3ccc(Cl)cc3)nn21 (stereo not drawn) [Compound I-0252] | 10 to 100 |
| CCCCC1CN(Cc2cccnc2)C(=O)c2cc(-c3ccc(Cl)cc3)nn21 (stereo not drawn) [Compound I-0255] | 10 to 100 |
| CCCCC1CN(Cc2ccccn2)C(=O)c2cc(-c3ccc(Cl)cc3)nn21 (stereo not drawn) [Compound I-0256] | 100 to 1000 |
| CCCCC1CN(Cc2ccncc2)C(=O)c2cc(-c3ccc(Cl)cc3)nn21 (stereo not drawn) [Compound I-0257] | 100 to 1000 |
| CCCCC1CN(Cc2ncco2)C(=O)c2cc(-c3ccc(Cl)cc3)nn21 (stereo not drawn) [Compound I-0260] | 100 to 1000 |
| CCCCC1CN(Cc2nc3ccccc3o2)C(=O)c2cc(-c3ccc(Cl)cc3)nn21 (stereo not drawn) [Compound I-0261] | 100 to 1000 |
| CCCCC1CN(C(C(C)=O)c2ccccc2)C(=O)c2cc(-c3ccc(Cl)cc3)nn21 (stereo not drawn) [Compound I-0262] | ≥ 1000 |

Results, then the molecule that gave them:

| IC50 [nM] | SMILES |
| --- | --- |
| 10 to 100 | CCCCC1CN(CC(=O)N(C)CC#N)C(=O)c2cc(-c3ccc(Cl)cc3)nn21 (stereo not drawn) [Compound I-0208] |
| 10 to 100 | CCCCC1CN(CC(=O)N(C)CCC#N)C(=O)c2cc(-c3ccc(Cl)cc3)nn21 (stereo not drawn) [Compound I-0209] |
| 10 to 100 | CCCCC1CN(CC(=O)N2CCCC(C(N)=O)C2)C(=O)c2cc(-c3ccc(Cl)cc3)nn21 (stereo not drawn) [Compound I-0210] |
| 10 to 100 | CCCCC1CN(CC(=O)N(CC#N)CC#N)C(=O)c2cc(-c3ccc(Cl)cc3)nn21 (stereo not drawn) [Compound I-0211] |
| 100 to 1000 | CCCCC1CN(CC(=O)NCCOCCO)C(=O)c2cc(-c3ccc(Cl)cc3)nn21 (stereo not drawn) [Compound I-0212] |
| 10 to 100 | CCCCC1CN(CC(=O)NCC#N)C(=O)c2cc(-c3ccc(Cl)cc3)nn21 (stereo not drawn) [Compound I-0213] |
| 10 to 100 | CCCCC1CN(CC(=O)N(CC)CCC#N)C(=O)c2cc(-c3ccc(Cl)cc3)nn21 (stereo not drawn) [Compound I-0214] |
| 100 to 1000 | CCCCC1CN(CC(=O)NCC(N)=O)C(=O)c2cc(-c3ccc(Cl)cc3)nn21 (stereo not drawn) [Compound I-0215] |
| 100 to 1000 | CCCCC1CN(CC(=O)NCC(O)C(F)(F)F)C(=O)c2cc(-c3ccc(Cl)cc3)nn21 (stereo not drawn) [Compound I-0216] |
| 100 to 1000 | CCCCC1CN(CC(=O)N2CCN(C(N)=O)CC2)C(=O)c2cc(-c3ccc(Cl)cc3)nn21 (stereo not drawn) [Compound I-0217] |
| 100 to 1000 | CCCCC1CN(CC(=O)NCCO)C(=O)c2cc(-c3ccc(Cl)cc3)nn21 (stereo not drawn) [Compound I-0218] |
| 100 to 1000 | CCCCC1CN(CC(=O)NCC(O)CO)C(=O)c2cc(-c3ccc(Cl)cc3)nn21 (stereo not drawn) [Compound I-0219] |
| 100 to 1000 | CCCCC1CN(CC(=O)N2CCC(C#N)CC2)C(=O)c2cc(-c3ccc(Cl)cc3)nn21 (stereo not drawn) [Compound I-0220] |
| 100 to 1000 | CCCCC1CN(CC(=O)N[C@@H]2CCC[C@H]2O)C(=O)c2cc(-c3ccc(Cl)cc3)nn21 (stereo partly drawn) [Compound I-0221] |
| 100 to 1000 | CCCCC1CN(CC(=O)NCCC(N)=O)C(=O)c2cc(-c3ccc(Cl)cc3)nn21 (stereo not drawn) [Compound I-0222] |
| 100 to 1000 | CCCCC1CN(CC(=O)N2[C@H](C)COC[C@@H]2C)C(=O)c2cc(-c3ccc(Cl)cc3)nn21 (stereo partly drawn) [Compound I-0223] |
| 100 to 1000 | CCCCC1CN(CC(=O)NCC(=O)NC)C(=O)c2cc(-c3ccc(Cl)cc3)nn21 (stereo not drawn) [Compound I-0224] |
| 100 to 1000 | CCCCC1CN(CC(=O)NCCC(=O)N(C)C)C(=O)c2cc(-c3ccc(Cl)cc3)nn21 (stereo not drawn) [Compound I-0225] |
| 100 to 1000 | CCCCC1CN(CC(=O)N2CCC[C@H]2C)C(=O)c2cc(-c3ccc(Cl)cc3)nn21 (stereo partly drawn) [Compound I-0227] |
| 100 to 1000 | CCCCC1CN(CC(=O)NCC(C)(C)O)C(=O)c2cc(-c3ccc(Cl)cc3)nn21 (stereo not drawn) [Compound I-0229] |
| 10 to 100 | CCCCC1CN(CC(=O)NCCC#N)C(=O)c2cc(-c3ccc(Cl)cc3)nn21 (stereo not drawn) [Compound I-0230] |

| IC50 [nM] | SMILES |
| --- | --- |
| ≥ 1000 | CCCCC1CN(CC(=O)NC(C#N)C#N)C(=O)c2cc(-c3ccc(Cl)cc3)nn21 (stereo not drawn) [Compound I-0231] |
| 10 to 100 | CCCCC1CN(CC(=O)NCc2nn[nH]n2)C(=O)c2cc(-c3ccc(Cl)cc3)nn21 (stereo not drawn) [Compound I-0232] |
| 10 to 100 | CCCCC1CN(CC(=O)N(CCC#N)CCC#N)C(=O)c2cc(-c3ccc(Cl)cc3)nn21 (stereo not drawn) [Compound I-0235] |
| 100 to 1000 | CCCCC1CN(CC(=O)NCC2(CO)COC2)C(=O)c2cc(-c3ccc(Cl)cc3)nn21 (stereo not drawn) [Compound I-0237] |
| 10 to 100 | CCCCC1CN(CC(=O)N2CCOC(C#N)C2)C(=O)c2cc(-c3ccc(Cl)cc3)nn21 (stereo not drawn) [Compound I-0239] |
| 100 to 1000 | CCCCC1CN(CC(=O)N2CCO[C@H](C)C2)C(=O)c2cc(-c3ccc(Cl)cc3)nn21 (stereo partly drawn) [Compound I-0240] |
| 100 to 1000 | CCCCC1CN(CC(=O)N2CCCC[C@H]2C)C(=O)c2cc(-c3ccc(Cl)cc3)nn21 (stereo partly drawn) [Compound I-0241] |
| 100 to 1000 | CCCCC1CN(CC(=O)N2CCC[C@H](C)C2)C(=O)c2cc(-c3ccc(Cl)cc3)nn21 (stereo partly drawn) [Compound I-0242] |
| 100 to 1000 | CCCCC1CN(CC(=O)N2CCC(OCCO)CC2)C(=O)c2cc(-c3ccc(Cl)cc3)nn21 (stereo not drawn) [Compound I-0243] |
| 100 to 1000 | CCCCC1CN(CC(=O)NCCCC#N)C(=O)c2cc(-c3ccc(Cl)cc3)nn21 (stereo not drawn) [Compound I-0244] |
| 100 to 1000 | CCCCC1CN(CC(=O)N[C@@H]2CCC[C@H]2O)C(=O)c2cc(-c3ccc(Cl)cc3)nn21 (stereo partly drawn) [Compound I-0245] |
| 10 to 100 | CCCCC1CN(CC(=O)N2CCC[C@@H]2C)C(=O)c2cc(-c3ccc(Cl)cc3)nn21 (stereo partly drawn) [Compound I-0246] |
| 10 to 100 | CCCCC1CN(CC(=O)N2CCCC[C@@H]2C)C(=O)c2cc(-c3ccc(Cl)cc3)nn21 (stereo partly drawn) [Compound I-0247] |
| 100 to 1000 | CCCCC1CN(CC(=O)N2CCC[C@@H](C)C2)C(=O)c2cc(-c3ccc(Cl)cc3)nn21 (stereo partly drawn) [Compound I-0248] |
| 10 to 100 | CCCCC1CN(CC(=O)OC)C(=O)c2cc(-c3ccc(Cl)cc3)nn21 (stereo not drawn) [Compound I-0249] |
| ≥ 1000 | CCCOCC1CN(CC(=O)O)C(=O)c2cc(-c3ccc(Cl)cc3)nn21 (stereo not drawn) [Compound I-0253] |
| 10 to 100 | CCCCC1CN(CC(=O)C2CCCCC2)C(=O)c2cc(-c3ccc(Cl)cc3)nn21 (stereo not drawn) [Compound I-0254] |
| 100 to 1000 | CCCCC1CN(Cc2cncn2C)C(=O)c2cc(-c3ccc(Cl)cc3)nn21 (stereo not drawn) [Compound I-0258] |
| 100 to 1000 | CCCCC1CN(Cc2ncn(C)n2)C(=O)c2cc(-c3ccc(Cl)cc3)nn21 (stereo not drawn) [Compound I-0259] |
| 100 to 1000 | CCCCC1CN(C2CCCCC2=O)C(=O)c2cc(-c3ccc(Cl)cc3)nn21 (stereo not drawn) [Compound I-0263] |
| 10 to 100 | CCCCC1CN(C2CCN(CC(F)(F)F)C2=O)C(=O)c2cc(-c3ccc(Cl)cc3)nn21 (stereo not drawn) [Compound I-0264] |
